Laboratory results from the supplement of paper PMC10307832.

Legend:
Test in all cases: relative viability (nuclei count vs DMSO), 5 days (fraction); higher = more cells survive
[1] = compound: COc1nc(N)nc2c1ncn2[C@@H]1O[C@H](CO)[C@@H](O)[C@@H]1O [Nelarabine] + C[C@]1(O)C[C@@H](c2nc(-c3ccc4ccc(-c5ccccc5)nc4c3)c3c(N)nccn32)C1 [Linsitinib] (partner 1 µM)
Summary of the method: (§1)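 Relative viability divides the nuclei count in treated wells by that in vehicle wells. Lung cancer cell lines were seeded in 1536-well plates, dosed by pin tool the next day, and fixed and stained after 5 days in one step with final 0.05% Triton X-100, 1% formaldehyde and 1 ug/ml Hoechst. Dosing was a single drug or a fixed anchor-drug dose plus five library-drug doses (not always all listed) in √10 steps, and values are medians of duplicate plates imaged at 4×.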

[2] = compound: C=CCn1c(=O)c2cnc(Nc3ccc(N4CCN(C)CC4)cc3)nc2n1-c1cccc(C(C)(C)O)n1 [Adavosertib] + COc1cccc2cc(-c3nc([C@H]4CC[C@H](C(=O)O)CC4)n4ncnc(N)c34)[nH]c12 [OSI-027] (partner 0.5 µM)
Summary of the method: as §1

[3] = compound: C=CCn1c(=O)c2cnc(Nc3ccc(N4CCN(C)CC4)cc3)nc2n1-c1cccc(C(C)(C)O)n1 [Adavosertib] + O=C(CCCCCCC(=O)Nc1ccccc1)NO [Vorinostat] (partner 1 µM)
Summary of the method: as §1

[4] = compound: COc1nc(N)nc2c1ncn2[C@@H]1O[C@H](CO)[C@@H](O)[C@@H]1O [Nelarabine] + CC1(C)CCC(c2ccc(Cl)cc2)=C(CN2CCN(c3ccc(C(=O)NS(=O)(=O)c4ccc(N[C@H](CCN5CCOCC5)CSc5ccccc5)c(S(=O)(=O)C(F)(F)F)c4)cc3)CC2)C1 [Navitoclax] (partner 0.5 µM)
Summary of the method: as §1

Cell Line | relative viability ([1]; first compound 0.01 µM) | relative viability ([1]; first compound 0.03162 µM) | relative viability ([1]; first compound 0.1 µM) | relative viability ([1]; first compound 0.3162 µM) | relative viability ([1]; first compound 1 µM) | relative viability ([2]; first compound 0.01 µM) | relative viability ([2]; first compound 0.03162 µM) | relative viability ([2]; first compound 0.1 µM) | relative viability ([2]; first compound 0.3162 µM) | relative viability ([3]; first compound 0.01 µM) | relative viability ([3]; first compound 0.03162 µM) | relative viability ([3]; first compound 0.1 µM) | relative viability ([3]; first compound 0.3162 µM) | relative viability ([4]; first compound 0.01 µM) | relative viability ([4]; first compound 0.03162 µM) | relative viability ([4]; first compound 0.1 µM) | relative viability ([4]; first compound 0.3162 µM) | relative viability ([4]; first compound 1 µM)
UMC-11 | 1.34 | 0.768 | 0.949 | 0.987 | 0.896 | 0.48 | 0.442 | 0.432 | 0.444 | 0.438 | 0.405 | 0.346 | 0.308 | 0.291 | 0.277 | 0.307 | 0.306 | 0.313
NCI-H1975 | 1.19 | 1.03 | 1.12 | 1.09 | 1.15 | 0.733 | 0.644 | 0.606 | 0.493 | 0.973 | 0.676 | 0.676 | 0.571 | 1.27 | 0.948 | 1.26 | 1.39 | 1.14
NCI-H2405 | 0.98 | 0.853 | 0.898 | 0.966 | 0.872 | 0.668 | 0.667 | 0.669 | 0.628 | – | 0.882 | 0.965 | 0.895 | 1 | 0.902 | 0.687 | 0.744 | 0.84
NCI-H1734 | 0.954 | 0.855 | 0.932 | 0.931 | 0.939 | 0.608 | 0.638 | 0.604 | 0.377 | 0.923 | 0.865 | 0.622 | 0.33 | 1.06 | 0.787 | 0.962 | 0.869 | 0.833
NCI-H1993 | 0.803 | 0.7 | 0.834 | 0.662 | 0.668 | 0.559 | 0.537 | 0.638 | 0.573 | 0.725 | 0.791 | 0.84 | 1.05 | 1.14 | 0.783 | 0.982 | 1.02 | 0.956
NCI-H1792 | 0.621 | – | 0.548 | 0.702 | 0.716 | – | 0.701 | 1.12 | 0.751 | – | – | – | – | 0.518 | – | 0.931 | 0.685 | 0.396
NCI-H358 | 0.891 | 0.613 | 0.694 | 0.865 | 0.74 | 0.786 | 0.913 | 0.637 | 0.326 | 0.622 | 0.597 | 0.637 | 0.219 | – | – | – | – | –
Calu-6 | 1.22 | 1.07 | 0.897 | 0.997 | 1 | – | – | – | – | – | – | – | – | 1.17 | – | 0.892 | 0.851 | 0.909
PC-14 | 1.03 | 0.96 | 0.986 | 0.979 | 1.03 | 0.916 | 0.835 | 0.846 | 0.114 | 0.841 | 0.85 | 0.638 | 0.183 | 1.09 | 1.11 | 1.05 | 1.05 | 1.03
NCI-H520 | 1.19 | 0.889 | 1.24 | 1.08 | 1.05 | 0.298 | 0.262 | 0.212 | 0.224 | 0.756 | 0.734 | 0.681 | 0.59 | 1.32 | 0.999 | 1.28 | 1.18 | 1.37
NCI-H23 | 0.749 | 0.671 | 0.613 | 0.623 | 0.622 | 0.604 | 0.631 | 0.553 | 0.327 | 0.627 | 0.469 | 0.401 | 0.185 | 0.804 | 0.821 | 0.783 | 0.854 | 0.763
NCI-H322M | 1.05 | 1.11 | 0.816 | 0.901 | 0.924 | 0.621 | 0.547 | 0.451 | 0.312 | 0.782 | 0.842 | 0.722 | 0.564 | 1.39 | 1.35 | 1.3 | 1.27 | 1.17
IA-LM | 0.847 | 0.838 | 0.68 | 0.737 | 0.667 | – | – | – | – | – | 0.904 | 1.07 | 1.12 | 1 | 0.626 | 0.774 | 0.754 | 0.807
A549 | 0.714 | 0.622 | 0.585 | 0.523 | 0.642 | – | – | – | – | – | – | – | – | 1.56 | 1.29 | 1.24 | 1.17 | 1.18
NCI-H1648 | – | – | – | – | – | 0.273 | 0.293 | 0.248 | 0.251 | 0.498 | 0.407 | 0.419 | 0.532 | – | – | – | – | –
NCI-H650 | 0.927 | 0.947 | 0.868 | 0.874 | 1 | 0.476 | 0.606 | 0.526 | 0.446 | 0.367 | 0.428 | 0.443 | 0.333 | – | – | – | – | –
ABC-1 | 0.955 | 1.19 | 0.83 | 0.809 | 0.723 | 0.411 | 0.406 | 0.405 | 0.419 | 1.17 | 1.26 | 1.1 | 1.44 | – | – | – | – | –
SW 900 | – | – | – | – | – | – | 0.554 | 0.494 | 0.436 | 0.445 | 0.492 | 0.424 | 0.268 | – | – | – | – | –
NCI-H1623 | – | – | – | – | – | 0.427 | 0.446 | 0.389 | 0.431 | – | – | – | – | – | – | – | – | –
EBC-1 | 0.99 | 1.13 | 0.929 | 0.91 | 0.939 | – | – | – | – | – | – | – | – | 0.403 | 0.261 | 0.375 | 0.432 | 0.381
NCI-H2342 | – | – | – | – | – | 0.575 | 0.566 | 0.676 | 0.616 | 0.679 | 0.833 | 0.741 | 0.864 | – | – | – | – | –
NCI-H1563 | 1.23 | 1.22 | 1.18 | 1.19 | 1.18 | 0.737 | 0.812 | 0.766 | 0.757 | – | – | – | – | – | – | – | – | –
ChaGo-K-1 | – | – | – | – | – | 0.546 | 0.633 | 0.511 | 0.591 | 0.747 | 0.74 | 0.779 | 0.741 | 1.03 | 1.02 | 1.48 | 0.936 | 1.07
LCLC-103H | 1.22 | 1.11 | 1.08 | 1.02 | 1.11 | 0.458 | 0.441 | 0.428 | 0.417 | 0.834 | 0.78 | 0.755 | 0.739 | – | – | – | – | –
NCI-H1299 | 1.19 | 1.02 | 1.05 | 1.04 | 0.963 | – | – | – | – | – | – | – | – | 1.09 | 1.06 | 1.1 | 1.07 | 1.08
